We go through two compounds from patent US5348743A, “Anti-pathogenically effective compositions comprising lytic peptides and hydrolytic enzymes” (priority 1993, dated 1994).

One experiment concerns S. nodorum. Description: Inhibitory effect of lytic peptides and hydrolytic enzymes against S. nodorum (microtiter plates, liquid pea medium, absorbance at 595 nm). Type of experiment: cell-based, Septoria nodorum. The procedure:
Microtiter plates were selected to investigate the inhibitory effect of lytic peptides and hydrolytic enzymes against S. nodorum. Test substances were added to 90 ul liquid pea medium which had been previously inoculated with 2.0×10^4 spores/ml medium of the test pathogen to give a final volume of 100 ul. The blank value of the test substances were determined by adding them to uninoculated liquid pea medium. The plates were evaluated after incubation in a wet chamber at 23° C. on a shaker in the dark for 48 hours.
a. Hydrolytic enzymes were purified from ethylene-treated bean leaves by the procedure described in Example 1.
b. Lytic peptides: The following antimicrobial peptides were tested at 20 ppm, 60 ppm and 200 ppm concentrations:
d. Combinations of test substances: Table 3 illustrates the composition of test solutions which were tested in duplicate/triplicate samples.
e. Evaluation: The growth of the pathogen was recorded by measuring the absorbance of the medium at 595 nm. The average of duplicate/triplicate samples was calculated and the corresponding enzyme blank was subtracted to give the net absorption of the growing mycelium. The inhibitory effect of the test substances used was determined by calculating the growth of the pathogen as a percentage of water control.

Experiment [1] relates to chitinase. It counts as biochemical, Phaseolus vulg. L. cv. saxa. The procedure:
(§1) Seeds of Phaseolus vulg. L. cv. saxa were grown in vermiculite under a 16 hr light: 8 hr dark regime at 20° C. Twelve day old bean plants were incubated in air-tight plastic chambers with a volume of 0.2 m^3. Control plants were incubated in identical chambers in ethylene-free air. After 48 hours, the primary leaves were harvested and frozen at -20° C.
(§2) 0.6597 kg frozen leaf tissue was homogenized in 0.1M sodium citrate buffer at pH 5.0 (2 ml×g^-1 fresh weight) with a Turmix homogenizer at top speed. The homogenate was centrifuged (25 Min., 11000 g) and 100 ml of the supernatant were used as a crude enzyme preparation. The proteins in the remaining crude extract were precipitated by adding ammonium sulfate to 95% saturation. After centrifugation (30 min., 11000 g) the sediment was redissolved in 100 mM Tris/HCl pH 8.0 and dialyzed against 5 mM Tris/HCl pH 8.0.
Chitinase activity was measured as described by Molano et al. (1977).

Experiment [2] deals with beta-1,3-glucanase. Type of experiment: biochemical, Phaseolus vulg. L. cv. saxa. The procedure: as §1, §2
Beta-1,3-glucanase activity was measured as described by Dygert et al., Analyt. Biochem., 13:367-374 (1965).

For experiment [3], the system named is chitinase. The conditions noted are these: Burri (1989), average of five ethylene treatments; cited from earlier work.
Experiment [4] deals with beta-1,3-glucanase. The conditions noted are these: Burri (1989), average of five ethylene treatments; cited from earlier work.

Where two headings read alike, the source gives them in different places.

Turning to “GIGKFLHSAK KFGKAFVGI MNS [SYNTHETIC PEPTIDE NO. 3]”, the “FUNGAL GROWTH IN PERCENTAGE OF CONTROL” value with S. nodorum (test solution 5: lytic peptide 20 ppm alone, 48 hours, 23° C.) is recorded as 80.35 percentage of control; in the experiment on S. nodorum (test solution 6: lytic peptide 60 ppm alone, 48 hours, 23° C.) it was 73.51 percentage of control; in the experiment on S. nodorum (test solution 7: lytic peptide 200 ppm alone, 48 hours, 23° C.), 65.96 percentage of control; in the experiment on S. nodorum (test solution 12: lytic peptide 20 ppm + chitinase 1/10 c), 68.42 percentage of control; with S. nodorum (test solution 13: lytic peptide 60 ppm + chitinase 1/10 c) it was 63.51 percentage of control; in the experiment on S. nodorum (test solution 14: lytic peptide 200 ppm + chitinase 1/10 c), 61.75 percentage of control. Moreover, the “FUNGAL GROWTH IN PERCENTAGE OF CONTROL” value with S. nodorum (test solution 15: lytic peptide 20 ppm + chitinase 1/100 c) was 77.89 percentage of control; with S. nodorum (test solution 16: lytic peptide 60 ppm + chitinase 1/100 c) it was 71.58 percentage of control; in the experiment with S. nodorum (test solution 17: lytic peptide 200 ppm + chitinase 1/100 c) it was 64.21 percentage of control; with S. nodorum (test solution 18: lytic peptide 20 ppm + beta-1,3-glucanase 1/10 c), 46.67 percentage of control; with S. nodorum (test solution 19: lytic peptide 60 ppm + beta-1,3-glucanase 1/10 c), 30.88 percentage of control; in the experiment with S. nodorum (test solution 20: lytic peptide 200 ppm + beta-1,3-glucanase 1/10 c), 27.89 percentage of control. For the same compound, the “FUNGAL GROWTH IN PERCENTAGE OF CONTROL” value in the experiment with S. nodorum (test solution 21: lytic peptide 20 ppm + beta-1,3-glucanase 1/100 c) is given as 65.26 percentage of control; in the experiment on S. nodorum (test solution 22: lytic peptide 60 ppm + beta-1,3-glucanase 1/100 c), 63.51 percentage of control; in the experiment with S. nodorum (test solution 23: lytic peptide 200 ppm + beta-1,3-glucanase 1/100 c), 53.68 percentage of control; in the experiment with S. nodorum (test solution 24: lytic peptide 20 ppm + chitinase 1/10 c + beta-1,3-glucanase 1/10 c), 9.47 percentage of control; in the experiment on S. nodorum (test solution 25: lytic peptide 60 ppm + chitinase 1/10 c + beta-1,3-glucanase 1/10 c) it was 8.42 percentage of control; in the experiment with S. nodorum (test solution 26: lytic peptide 200 ppm + chitinase 1/10 c + beta-1,3-glucanase 1/10 c), 3.86 percentage of control. For the same compound, the results for the “FUNGAL GROWTH IN PERCENTAGE OF CONTROL” value in the experiment with S. nodorum (test solution 27: lytic peptide 20 ppm + chitinase 1/100 c + beta-1,3-glucanase 1/100 c), in the experiment on S. nodorum (test solution 28: lytic peptide 60 ppm + chitinase 1/100 c + beta-1,3-glucanase 1/100 c) and in the experiment on S. nodorum (test solution 29: lytic peptide 200 ppm + chitinase 1/100 c + beta-1,3-glucanase 1/100 c) were 40.7 percentage of control, 36.49 percentage of control and 31.23 percentage of control, respectively.

Regarding `C=C` [ethylene], in the experiment on chitinase [1], the Specific chitinase activity is listed as 45.95, the absolute chitinase activity was determined as 54.71 and the “induction of chitinase in bean leaves” value is on record as “strong induction”. In the experiment on beta-1,3-glucanase [2], the “Specific beta-1,3-glucanase activity” value stood at 28.72, the “absolute beta-1,3-glucanase activity” value is reported as 34.21 and the “induction of beta-1,3-glucanase in bean leaves” value is “strong induction”. For the same compound, the absolute chitinase activity in the experiment on chitinase [3] is reported as 88.86±6.65 nkatal/ml extract. In the experiment with beta-1,3-glucanase [4], the “absolute beta-1,3-glucanase activity” value is 76.00±6.77 nkatal/ml extract.
